In paper PMC9583322, “Vicinal Diaryl-Substituted Isoxazole and Pyrazole Derivatives with In Vitro Growth Inhibitory and In Vivo Antitumor Activity” (ACS Omega, 2022):

Legend:
MDA-MB231 = experiment: SRB cytotoxicity assay; type: cell-based; details: Homo sapiens, MDA-MB-231, 72 h treatment
Procedure: (§1) HepG2, FOCUS, Hep3B, Mahlavu, Huh7, Hep40, and PLC-PRF-5 hepatocellular carcinoma cells; MCF-7, MDA-MB-231, MDA-MB-468, SKBR3, and ZR-75 breast cancer cells; and normal-like epithelial MCF-10A breast cells were cultured in low-glucose Dulbecco’s modified Eagle’s medium (DMEM) (Biological Industries-BI) supplemented with 10% fetal bovine serum (FBS) (Gibco/Thermo Fisher Scientific), 2 mM L-Glutamine (Gibco/Thermo Fisher Scientific), 100 Units/mL Penicillin/Streptomycin, and 0.1 mM non-essential amino acid (Gibco/Thermo Fisher Scientific). SNU475 hepatocellular carcinoma cells were maintained in RPMI (Biological Industries-BI) supplemented with 10% fetal bovine serum (FBS) (Gibco/Thermo Fisher Scientific), L-Glutamine (Gibco/Thermo Fisher Scientific), and 100 Units/mL Penicillin/Streptomycin, while ZR-75 breast cancer cells were cultured RPMI (Biological Industries-BI) supplemented with 10% fetal bovine serum (FBS) (Gibco/Thermo Fisher Scientific), 1× sodium pyruvate, and %4.5 glucose. Normal-like MCF-10A breast cells were sustained in DMEM/HAM’S F12 (Hyclone) supplemented with 10% fetal bovine serum (FBS) (Gibco/Thermo Fisher Scientific), EGF (20 ng/mL), Hydrocortisone ([…]), cholera toxin (100 ng/mL), insulin (10 μg/mL), and 100 Units/mL Penicillin/Streptomycin. The cells were cultivated at 37 °C in a humidified incubator under 5% CO2.
(§2) Mahlavu, FOCUS, SNU475 (1000 cell/well in 150 μL/well); Huh7, MCF7 (2500 cell/well in 150 μL/well); HepG2, Hep3B, SKBR3 (3000 cell/well in 150 μL/well); PLC-PRF-5, Hep40 (5000 cell/well in 150 μL/well); MDA-MB-231, MDA-MB-468, MCF10A (6000 cell/well in 150 μL/well); and ZR-75 (7500 cell/well in 150 μL/well) were cultured in 96-well plates and were inoculated in an incubator for 24 hours. The compounds were dissolved in dimethyl sulfoxide (DMSO) (Sigma, St Louis, MO) as a 20 mM stock solution. The treatment of cells with the compounds was done in a concentration range starting from 40 to 2.5 μM. The compounds which were below 2.5 μM were tested in a concentration range from 2.5 to 0.15 μM. End of the 72h compound treatment, the cells were fixed using 10% (v/v) trichloroacetic acid (MERCK) for an hour and washed with ddH2O, and left for air-drying. The fixed plates were stained with 50 μL of sulforhodamine B (SRB) solution (Sigma) at RT for 10 min. To remove unbound SRB dye, acetic acid was used to wash cells three times and left for drying. The protein-bound SRB was solubilized with 10 mM Tris-base (Sigma) and their absorbance was measured with a 96-well plate reader at 515 nm wavelength (ELx800, Biotek). The IC50 values of compounds were calculated in comparison with control group DMSO. Data with R^2 values larger than 0.9 are considered significant.

FOCUS = experiment: SRB cytotoxicity assay; type: cell-based; details: Homo sapiens, 72 h treatment
Procedure: as §1, §2

PLC-PRF-5 = experiment: SRB cytotoxicity assay; type: cell-based; details: Homo sapiens, 72 h treatment
Procedure: as §1, §2

Hep3B = experiment: SRB cytotoxicity assay; type: cell-based; details: Homo sapiens, 72 h treatment
Procedure: as §1, §2

SNU475 = experiment: SRB cytotoxicity assay; type: cell-based; details: Homo sapiens, SNU-475, 72 h treatment
Procedure: as §1, §2

Hep40 = experiment: SRB cytotoxicity assay; type: cell-based; details: Homo sapiens, 72 h treatment
Procedure: as §1, §2

MDA-MB468 = experiment: SRB cytotoxicity assay; type: cell-based; details: Homo sapiens, MDA-MB-468, 72 h treatment
Procedure: as §1, §2

ZR75 = experiment: SRB cytotoxicity assay; type: cell-based; details: Homo sapiens, 72 h treatment
Procedure: as §1, §2

SKBR3 = experiment: SRB cytotoxicity assay; type: cell-based; details: Homo sapiens, SK-BR-3, 72 h treatment
Procedure: as §1, §2

HepG2 = experiment: SRB cytotoxicity assay; type: cell-based; details: Homo sapiens, 72 h treatment
Procedure: as §1, §2

PARP = PARP cleavage western blotting; type: cell-based, human; details: 5 μM, 48 h; MCF7, MDA-MB-231, Mahlavu; except for 11 treated MCF7 and Huh7 cells
Procedure: Cells were treated for 5 μM compounds 11 and 85 or control (DMSO). The treated cells were collected with a scraper at end of 48 h incubation and lysates were prepared. Protein concentration was calculated with a BCA assay. The protein levels were analyzed using protein electrophoresis according to the manufacturer’s protocol for near-infrared (NIR) Western Blot analysis (Mini-PROTEAN Tetra Cell Systems, Bio-Rad). The samples (40 μg /well) were loaded onto TGX precast gels, and protein transfer from gel to an LF-PVDF membrane was done using Trans-Blot Turbo System (Bio-Rad). Primary antibodies (PARP, CST, #9532S) and Calnexin (CST, #2679) and secondary antibodies IRDye 680RD Goat Anti Rabbit (Li-Cor, # 92668071) and IRDye- 800CW Goat Anti Rabbit (Licor, # 926e32211) were used for western blotting, and the proteins were monitored in fluorescence system using Odyssey CLx- LICOR imaging system.[32]

Mahlavu xenografts = experiment: Mahlavu hepatocellular carcinoma xenograft; type: in vivo; details: 40 mg/kg oral; for reduction in tumor volume: Mahlavu xenografts, nude mice, twice a week, 4 weeks; for Tolerability of the administered dose: in all studies (Mahlavu and MDA-MB-231 xenografts), no significant bodyweight loss, toxic effects or mortality
Procedure: (§3) Mahlavu cells (10 × 10^6 cells/mouse) prepared in 150 μL of DMEM were injected subcutaneously to the flank of 6–8 weeks old male athymic nude mice, while MDA-MB-231 cells (2 × 10^6cells/mouse) in 1:1 DMEM and matrigel were injected into mammary fat pad (MFP) of 6–8 weeks old female athymic nude mice. Tumor volume and mouse weight were measured twice a week using calipers. When the tumor volume reached ∼150 mm^3, xenografts were randomized into groups (6 mice per group), and the mice were administered subsequently with 11 or 85 (40 mg/kg in 0.5% hydroxypropyl methylcellulose plus 1% Tween 80) or vehicle by gavage feeding (3–4 days/week) for 4 weeks. The mice were sacrificed 30 days after initiation of the compound treatment and tumors were collected. Two-way ANOVA was performed for statistical significance by GraphPad Prism. All of the mice were maintained under a temperature-controlled environment with a 12 h light/dark cycle and received a standard diet and water ad libitum.

MDA-MB-231 xenografts = experiment: MDA-MB-231 breast cancer xenograft; type: in vivo, mouse; details: nude mice, 40 mg/kg oral, twice a week, 4 weeks
Procedure: as §3

**Q.** Which results are given for Cc1ccccc1COc1ccc(-c2noc(C)c2-c2ccc(Cl)cc2)cc1 [compound 11, 4-(4-Chlorophenyl)-5-methyl-3-(4-((2-methylbenzyl)oxy)phenyl)isoxazole]?
**A.** IC50 (MDA-MB231): 2000 nM; IC50 (FOCUS): 2100 nM; IC50 (PLC-PRF-5): 9.5 µM; IC50 (Hep3B): 3 µM; IC50 (SNU475): 1700 nM; IC50 (Hep40): 8.6 µM; IC50 (MDA-MB468): 2800 nM; IC50 (ZR75): 7.6 µM; IC50 (SKBR3): 3500 nM; IC50 (HepG2): 2100 nM; PARP cleavage (PARP): increase in PARP cleavage; reduction in tumor volume (Mahlavu xenografts): 85%; Tolerability of the administered dose (Mahlavu xenografts): well tolerated; decrease in tumor volumes as compared to the control group (MDA-MB-231 xenografts): ~50%

**Q.** Cc1ccccc1COc1ccc(-c2ccnn2-c2ccc(Cl)cc2)cc1 [compound 85, 1-(4-Chlorophenyl)-5-(4-((2-methylbenzyl)oxy)phenyl)-1H-pyrazole] was tested. Which IC50 (MDA-MB231) did it give?
**A.** 900 nM

**Q.** And the IC50 (FOCUS)?
**A.** 2400 nM

**Q.** What about the IC50 (PLC-PRF-5) of the same compound?
**A.** 6.5 µM

**Q.** And the IC50 (Hep3B)?
**A.** 7.9 µM

**Q.** What about the IC50 (SNU475) of the same compound?
**A.** 1500 nM

**Q.** And the IC50 (Hep40)?
**A.** 5.2 µM

**Q.** And the IC50 (MDA-MB468)?
**A.** 1000 nM

**Q.** And the IC50 (ZR75)?
**A.** 5.5 µM

**Q.** What about the IC50 (SKBR3) of the same compound?
**A.** 1800 nM

**Q.** And the IC50 (HepG2)?
**A.** 1400 nM

**Q.** What about the PARP cleavage (PARP) of the same compound?
**A.** increase in PARP cleavage

**Q.** What about the “reduction in tumor volume” value (Mahlavu xenografts) of the same compound?
**A.** 40%

**Q.** And the “Tolerability of the administered dose” value (Mahlavu xenografts)?
**A.** well tolerated

**Q.** What about the “decrease in tumor volumes as compared to the control group” value (MDA-MB-231 xenografts) of the same compound?
**A.** ~50%
